According to ChEMBL document CHEMBL1151495, “Activity of new penems against defined MRSA strains” (1993):
Values after ≈ are worked out from the molar mass of the structure shown.

Key:
Format in all cases: functional
[1] = test system: Staphylococcus aureus; assay: In vitro minimum inhibitory concentration against Staphylococcus aureus SN 43.
[2] = test system: Staphylococcus aureus; assay: In vitro minimum inhibitory concentration against Staphylococcus aureus CDC1.
[3] = test system: Staphylococcus aureus; assay: In vitro minimum inhibitory concentration against Staphylococcus aureus SN 7.
[4] = test system: Staphylococcus aureus; assay: In vitro minimum inhibitory concentration against Staphylococcus aureus COL.

Structure (SMILES)	MIC [1]	MIC [2]	MIC [3]	MIC [4]
C[C@@H](O)[C@H]1C(=O)N2C(C(=O)O)=C(S[C@@H]3CN[C@H](C(=O)N(C)C)C3)[C@H](C)[C@H]12 [MEROPENEM]	25 µg/mL (≈ 65.2 µM)	0.19 µg/mL (≈ 0.495 µM)	1.56 µg/mL (≈ 4.07 µM)	100 µg/mL (≈ 261 µM)
C[C@@H](O)[C@H]1C(=O)N2C(C(=O)O)=C(COc3cnccn3)S[C@H]12	> 100 µg/mL	0.19 µg/mL (≈ 0.588 µM)	0.39 µg/mL (≈ 1.21 µM)	100 µg/mL (≈ 309 µM)
CC(O)[C@H]1C(=O)N2C(C(=O)O)=C(SCCNC=N)C[C@H]12.O (single isomer, unassigned) [IMIPENEM]	25 µg/mL	0.09 µg/mL	0.19 µg/mL	25 µg/mL
O=C(O)c1cn(C2CC2)c2cc(N3CCNCC3)c(F)cc2c1=O [CIPROFLOXACIN]		0.39 µg/mL (≈ 1.18 µM)	0.78 µg/mL (≈ 2.35 µM)	
C[C@@H](O)[C@H]1C(=O)N2C(C(=O)O)=C(COC(=O)c3ccc4ccccc4c3)S[C@H]12	6.25 µg/mL (≈ 15.6 µM)	0.09 µg/mL (≈ 0.225 µM)	0.39 µg/mL (≈ 0.976 µM)	12.5 µg/mL (≈ 31.3 µM)
C[C@@H](O)[C@H]1C(=O)N2C(C(=O)O)=C(COc3cccnc3)S[C@H]12	100 µg/mL (≈ 310 µM)	0.19 µg/mL (≈ 0.589 µM)	0.78 µg/mL (≈ 2.42 µM)	100 µg/mL (≈ 310 µM)
C[C@@H](O)[C@H]1C(=O)N2C(C(=O)O)=C(COc3cncc(Cl)c3)S[C@H]12	50 µg/mL (≈ 140 µM)	0.09 µg/mL (≈ 0.252 µM)	0.78 µg/mL (≈ 2.19 µM)	25 µg/mL (≈ 70.1 µM)
C[C@@H](O)[C@H]1C(=O)N2C(C(=O)O)=C(COC(=O)c3cccnc3)S[C@H]12	100 µg/mL (≈ 285 µM)	0.09 µg/mL (≈ 0.257 µM)	0.19 µg/mL (≈ 0.542 µM)	50 µg/mL (≈ 143 µM)

Continued, values first:

MIC [1]	MIC [2]	MIC [3]	MIC [4]	Structure (SMILES)
12.5 µg/mL (≈ 33.6 µM)	0.19 µg/mL (≈ 0.51 µM)	3.12 µg/mL (≈ 8.38 µM)	6.25 µg/mL (≈ 16.8 µM)	C[C@@H](O)[C@H]1C(=O)N2C(C(=O)O)=C(COc3cncc4ccccc34)S[C@H]12
100 µg/mL (≈ 311 µM)	0.39 µg/mL (≈ 1.21 µM)	50 µg/mL (≈ 156 µM)	50 µg/mL (≈ 156 µM)	C[C@@H](O)[C@H]1C(=O)N2C(C(=O)O)=C(COc3ccccc3)S[C@H]12
> 100 µg/mL	0.19 µg/mL (≈ 0.541 µM)	0.39 µg/mL (≈ 1.11 µM)	100 µg/mL (≈ 285 µM)	C[C@@H](O)[C@H]1C(=O)N2C(C(=O)O)=C(COC(=O)c3cnccn3)S[C@H]12
12.5 µg/mL (≈ 31.2 µM)	0.09 µg/mL (≈ 0.225 µM)	0.19 µg/mL (≈ 0.475 µM)	6.25 µg/mL (≈ 15.6 µM)	C[C@@H](O)[C@H]1C(=O)N2C(C(=O)O)=C(COC(=O)c3cnc4ccccc4c3)S[C@H]12
6.25 µg/mL (≈ 13.9 µM)	< 0.011 µg/mL	< 0.011 µg/mL	6.25 µg/mL (≈ 13.9 µM)	C[C@@H](O)[C@H]1C(=O)N2C(C(=O)O)=C(COC(=O)c3ccc4ccc5ccccc5c4c3)S[C@H]12
50 µg/mL (≈ 143 µM)	0.09 µg/mL (≈ 0.258 µM)	0.39 µg/mL (≈ 1.12 µM)	25 µg/mL (≈ 71.6 µM)	C[C@@H](O)[C@H]1C(=O)N2C(C(=O)O)=C(COC(=O)c3ccccc3)S[C@H]12
> 100 µg/mL	3.12 µg/mL (≈ 8.2 µM)	6.25 µg/mL (≈ 16.4 µM)	> 100 µg/mL	COc1cccc(OC)c1C(=O)N[C@@H]1C(=O)N2[C@@H]1SC(C)(C)[C@@H]2C(=O)O [METHICILLIN]
100 µg/mL (≈ 347 µM)	0.19 µg/mL (≈ 0.659 µM)	0.39 µg/mL (≈ 1.35 µM)	100 µg/mL (≈ 347 µM)	C[C@@H](O)[C@H]1C(=O)N2C(C(=O)O)=C(COC(N)=O)S[C@H]12 [RITIPENEM]
50 µg/mL (≈ 89.5 µM)	0.39 µg/mL (≈ 0.698 µM)	1.56 µg/mL (≈ 2.79 µM)	6.25 µg/mL (≈ 11.2 µM)	C[C@@H](O)[C@H]1C(=O)N2C(C(=O)O)=C(COC(=O)c3cn(C4CC4)c4cc(N5CCNCC5)c(F)cc4c3=O)S[C@H]12
25 µg/mL (≈ 46.9 µM)	0.09 µg/mL (≈ 0.169 µM)	0.78 µg/mL (≈ 1.46 µM)	6.25 µg/mL (≈ 11.7 µM)	C[C@@H](O)[C@H]1C(=O)N2C(C(=O)O)=C(COc3c(I)cc(Cl)c4cccnc34)S[C@H]12
6.25 µg/mL (≈ 13.9 µM)	0.022 µg/mL (≈ 0.0489 µM)	0.09 µg/mL (≈ 0.2 µM)	3.12 µg/mL (≈ 6.94 µM)	C[C@@H](O)[C@H]1C(=O)N2C(C(=O)O)=C(COC(=O)c3ccc4c(ccc5ccccc54)c3)S[C@H]12
